From ChEMBL document CHEMBL1201862, “PubChem BioAssay data set” (2004)
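48-hour exposure; five concentrations; linearly interpolated endpoints. GI50: concentration for 50% inhibition of growth.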 The source made the active and inactive calls. Cut-off read from the data, not from the text of the source: active = GI50 up to about 1.1 µM and inactive = higher.

Key:
Assay in all cases: NCI tumour cell line growth inhibition, 48 h
UACC-257 = tested on: UACC-257
SNB-19 = tested on: SNB-19
ACHN = tested on: ACHN
A549 = tested on: A549
RPMI-8226 = tested on: RPMI-8226
OVCAR-8 = tested on: OVCAR-8
SK-OV-3 = tested on: SK-OV-3
UACC-62 = tested on: UACC-62
HT-29 = tested on: HT-29
SK-MEL-5 = tested on: SK-MEL-5
NCI-H226 = tested on: NCI-H226
NCI-H23 = tested on: NCI-H23
OVCAR-5 = tested on: OVCAR-5
CAKI-1 = tested on: CAKI-1
SK-MEL-2 = tested on: SK-MEL-2
A498 = tested on: A498
HCT-15 = tested on: HCT-15
NCI/ADR-RES = tested on: NCI/ADR-RES

Compound	GI50 (UACC-257)	GI50 (SNB-19)	GI50 (ACHN)	GI50 (A549)	GI50 (RPMI-8226)	GI50 (OVCAR-8)	GI50 (SK-OV-3)	GI50 (UACC-62)	GI50 (HT-29)	GI50 (SK-MEL-5)	GI50 (NCI-H226)	GI50 (NCI-H23)	GI50 (OVCAR-5)	GI50 (CAKI-1)	GI50 (SK-MEL-2)	GI50 (A498)	GI50 (HCT-15) [µM]	GI50 (NCI/ADR-RES)
COc1ccc(-c2cc(O)c3ccc(F)cc3n2)cc1	> 100 µM (inactive)	> 100 µM (inactive)	> 100 µM (inactive)	> 100 µM (inactive)	> 100 µM (inactive)	> 100 µM (inactive)	> 100 µM (inactive)	> 100 µM (inactive)	> 100 µM (inactive)	> 100 µM (inactive)	> 100 µM (inactive)	> 100 µM (inactive)	> 100 µM (inactive)	–	–	–	–	–
CCCCCC(O)(CCCCC)CCCCCCCCC1=C(O)C(=O)c2ccc(=O)[nH]c2C1=O	3.64 µM (inactive)	5.48 µM (inactive)	6.37 µM (inactive)	5.41 µM (inactive)	4.12 µM (inactive)	9.06 µM (inactive)	15.9 µM (inactive)	3.2 µM (inactive)	15.3 µM (inactive)	3.78 µM (inactive)	8.36 µM (inactive)	2.61 µM (inactive)	20.3 µM (inactive)	11.2 µM (inactive)	3.06 µM (inactive)	12.2 µM (inactive)	4.22	–
Cc1cc(NCCCCCCCCNc2cc(C)nc3cc(N(C)C)ccc23)c2ccc(N(C)C)cc2n1	3.94 µM (inactive)	3.09 µM (inactive)	12.3 µM (inactive)	3.31 µM (inactive)	0.736 µM (active)	6.11 µM (inactive)	–	–	–	–	–	1.43 µM (inactive)	–	24.3 µM (inactive)	5.13 µM (inactive)	17.5 µM (inactive)	34.8	–
CCCCCCCCCCCCCCCCCCCCCC(=O)Nc1ccn(C2OC(CO)C(O)C2O)c(=O)n1 (configuration not stated)	> 100 µM (inactive)	> 57 µM (inactive)	5.2 µM (inactive)	4.68 µM (inactive)	> 100 µM (inactive)	12.4 µM (inactive)	> 54.6 µM (inactive)	33.6 µM (inactive)	> 100 µM (inactive)	29 µM (inactive)	> 100 µM (inactive)	3.1 µM (inactive)	> 61 µM (inactive)	> 31.6 µM (inactive)	> 100 µM (inactive)	34.2 µM (inactive)	> 96.2	–
O=C(Cc1nc2c3c(ccc2nc1O)C(=O)c1ccccc1C3=O)C(=O)Nc1ccccc1[N+](=O)[O-]	17.7 µM (inactive)	16.6 µM (inactive)	15.7 µM (inactive)	49.4 µM (inactive)	11.4 µM (inactive)	17.1 µM (inactive)	60 µM (inactive)	25.6 µM (inactive)	19.5 µM (inactive)	18.3 µM (inactive)	20.6 µM (inactive)	18.5 µM (inactive)	21.5 µM (inactive)	21.5 µM (inactive)	19.1 µM (inactive)	–	> 10	–
COc1ccc2c(c1)CCN1CCc3cc(OC)c(OC)cc3CC21 (configuration not stated)	93.8 µM (inactive)	82 µM (inactive)	> 100 µM (inactive)	> 100 µM (inactive)	65.5 µM (inactive)	> 100 µM (inactive)	> 100 µM (inactive)	32.6 µM (inactive)	35 µM (inactive)	–	> 100 µM (inactive)	98.9 µM (inactive)	> 100 µM (inactive)	> 100 µM (inactive)	–	> 100 µM (inactive)	61	> 100 µM (inactive)
NNC(=O)C(=O)N/N=C1\CCC(=O)CC1C(=O)CCC(=O)Nc1ccc(Cl)cc1 (configuration not stated)	> 100 µM (inactive)	> 100 µM (inactive)	> 100 µM (inactive)	> 100 µM (inactive)	> 100 µM (inactive)	> 100 µM (inactive)	> 100 µM (inactive)	> 100 µM (inactive)	> 100 µM (inactive)	> 100 µM (inactive)	> 100 µM (inactive)	> 100 µM (inactive)	> 100 µM (inactive)	> 100 µM (inactive)	> 100 µM (inactive)	> 100 µM (inactive)	94.8	–
Clc1cccc2c1OCC1C(c3ccccc3)=NN(c3ccccc3)C21 (configuration not stated)	67.3 µM (inactive)	96.4 µM (inactive)	55.5 µM (inactive)	66.2 µM (inactive)	22.8 µM (inactive)	81.8 µM (inactive)	> 100 µM (inactive)	–	83.9 µM (inactive)	23.8 µM (inactive)	–	> 100 µM (inactive)	> 100 µM (inactive)	–	> 100 µM (inactive)	> 100 µM (inactive)	–	–
FC(F)(F)c1cccc(C2SCc3nc4ccccc4n32)c1 (configuration not stated)	4.54 µM (inactive)	51.3 µM (inactive)	64 µM (inactive)	56.1 µM (inactive)	12.9 µM (inactive)	59.3 µM (inactive)	26.8 µM (inactive)	> 100 µM (inactive)	> 100 µM (inactive)	11 µM (inactive)	> 100 µM (inactive)	9.79 µM (inactive)	6.32 µM (inactive)	55.2 µM (inactive)	> 100 µM (inactive)	–	–	–
O=C(c1ccncc1)n1nc(-c2ccccc2)c(/N=N/c2ccccc2[N+](=O)[O-])c1-c1ccccc1	40.8 µM (inactive)	36.9 µM (inactive)	–	39.4 µM (inactive)	28.3 µM (inactive)	56.1 µM (inactive)	> 100 µM (inactive)	75.3 µM (inactive)	26.2 µM (inactive)	21.6 µM (inactive)	–	30 µM (inactive)	–	63.8 µM (inactive)	> 100 µM (inactive)	70.3 µM (inactive)	–	–
C/C(CC(=O)Nc1cc(C)ccc1C)=N\NC(=O)c1ccncc1	> 100 µM (inactive)	–	–	> 100 µM (inactive)	> 100 µM (inactive)	> 100 µM (inactive)	> 100 µM (inactive)	> 100 µM (inactive)	> 100 µM (inactive)	> 100 µM (inactive)	> 100 µM (inactive)	> 100 µM (inactive)	> 100 µM (inactive)	–	> 100 µM (inactive)	–	–	–
S=C(Nc1ccccc1)Nc1[nH]c(=S)sc1-c1nc2ccccc2[nH]1	> 100 µM (inactive)	36.9 µM (inactive)	72.4 µM (inactive)	65.6 µM (inactive)	97.3 µM (inactive)	48.8 µM (inactive)	37.9 µM (inactive)	57.9 µM (inactive)	> 100 µM (inactive)	28.8 µM (inactive)	12.2 µM (inactive)	> 100 µM (inactive)	> 100 µM (inactive)	94 µM (inactive)	38.4 µM (inactive)	> 100 µM (inactive)	98.2	–
Cc1ccc(NC(=O)C(=O)CC(=O)C2CCOC2=O)c(C)c1 (configuration not stated)	> 100 µM (inactive)	> 100 µM (inactive)	> 100 µM (inactive)	> 100 µM (inactive)	> 100 µM (inactive)	> 100 µM (inactive)	> 100 µM (inactive)	> 100 µM (inactive)	> 100 µM (inactive)	> 100 µM (inactive)	> 100 µM (inactive)	> 100 µM (inactive)	> 100 µM (inactive)	> 100 µM (inactive)	> 100 µM (inactive)	> 100 µM (inactive)	> 100	–
COc1cc(C(O)C(=O)c2cnc3cc([N+](=O)[O-])ccc3n2)ccc1O (configuration not stated)	> 100 µM (inactive)	> 100 µM (inactive)	> 100 µM (inactive)	> 100 µM (inactive)	> 100 µM (inactive)	> 100 µM (inactive)	> 100 µM (inactive)	62.1 µM (inactive)	> 100 µM (inactive)	> 100 µM (inactive)	–	–	–	> 100 µM (inactive)	> 100 µM (inactive)	> 100 µM (inactive)	> 100	–
COC1=C(C)C(=O)C2C(C1=O)C(c1ccc(OC)c(OC)c1)[C@H]2C (some centres not stated)	–	> 100 µM (inactive)	> 100 µM (inactive)	> 100 µM (inactive)	> 100 µM (inactive)	> 100 µM (inactive)	> 100 µM (inactive)	> 100 µM (inactive)	> 100 µM (inactive)	> 100 µM (inactive)	> 100 µM (inactive)	> 100 µM (inactive)	> 100 µM (inactive)	> 100 µM (inactive)	> 100 µM (inactive)	> 100 µM (inactive)	> 100	–
C=C1C2CC(OC(C)=O)C3(C)C(c4ccoc4)OC(=O)[C@@H](O)[C@]13OC1C[C@H](OC(C)=O)C(C)(C)[C@H](C(O)C(=O)OC)[C@]12C (some centres not stated)	–	> 100 µM (inactive)	> 100 µM (inactive)	> 100 µM (inactive)	> 100 µM (inactive)	> 100 µM (inactive)	> 100 µM (inactive)	> 100 µM (inactive)	> 100 µM (inactive)	> 100 µM (inactive)	> 100 µM (inactive)	> 100 µM (inactive)	–	–	> 100 µM (inactive)	> 100 µM (inactive)	> 100	–
COc1cc(/C=C\c2ccc(Cl)cc2)cc(OC)c1OC	0.804 µM (active)	0.322 µM (active)	1.38 µM (inactive)	0.196 µM (active)	0.143 µM (active)	0.363 µM (active)	0.228 µM (active)	0.0885 µM (active)	0.0459 µM (active)	0.025 µM (active)	0.24 µM (active)	0.247 µM (active)	26.3 µM (inactive)	0.384 µM (active)	0.245 µM (active)	0.171 µM (active)	0.196	–
O=c1oc2c(O)c(O)cc3c(=O)oc4c(O)c(O)cc1c4c23 [ELLAGIC ACID]	> 10 µM (inactive)	18.7 µM (inactive)	45.8 µM (inactive)	68.2 µM (inactive)	> 10 µM (inactive)	18.6 µM (inactive)	73.1 µM (inactive)	40.8 µM (inactive)	> 10 µM (inactive)	> 10 µM (inactive)	23.6 µM (inactive)	47.9 µM (inactive)	> 10 µM (inactive)	< 0.01 µM (active)	78.2 µM (inactive)	21.4 µM (inactive)	79.8	–
